Results from patent US20100120690A1, “Polypeptides Having Antimicrobial Activity and Polynucleotides Encoding Same” (Novozymes Adenium Biotech A/S, priority 2005, published 2010).

What was measured:
Format in all cases: cell-based
[1] = test system: Staphylococcus carnosus ATCC51365; experiment: Yeast screening assay: radial diffusion assay of yeast supernatants; design: key: An activity of 3 is better than Plectasin; An activity of 2 corresponds to the activity of Plectasin; 1 is worse than Plectasin; conditions: yeast supernatant, clearing zone in radial diffusion assay
Method in brief: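 Supernatants from S. cerevisiae expressing plectasin variants, grown 3 days at 30 °C in galactose medium, were applied to agarose containing 5×10^5 cfu/mL S. carnosus. Plates were incubated 3 h at 37 °C, overlaid, left overnight and MTT-stained. Clearing zones were scored as 2 = plectasin-like, 3 = better, 1 = worse.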

[2] = test system: Staphylococcus aureus, ATCC 29213; experiment: MIC, NCCLS/CLSI guidelines (Example 5), strain A; conditions: relative to wildtype Plectasin; average of two independent experiments
Method: (§1) Plectasin wild-type (SEQ ID NO: 1) and several variants of Plectasin were expressed and purified. The Minimal Inhibitory Concentration (MIC) was determined to test for their antimicrobial activity following the NCCLS guidelines from CLSI (Clinical and Laboratory Standards Institute; formerly known as National Committee for Clinical and Laboratory Standards).
(§2) The peptides were tested against the following strains: • A: Staphylococcus aureus, ATCC 29213; • B: Staphylococcus aureus, ATCC 25923; • C: Staphylococcus aureus, ATCC 29737; • D: Staphylococcus aureus, MRSA ST5 (2001), multi-resistant clinical human isolate from Statens Serum Institut, Denmark; • E: Staphylococcus aureus, MRSA ST80 (2003), multi-resistant clinical human isolate from Statens Serum Institut, Denmark.
(§3) All MIC values represent an average of two independent experiments; and all results in Table 5 are expressed relative to wildtype Plectasin:
(§4) 0: >100% of Plectasin wildtype MIC; 1: 80-100% of Plectasin wildtype MIC; 2: 50-80% of Plectasin wildtype MIC; 3: <50% of Plectasin wildtype MIC.

[3] = test system: Staphylococcus aureus, ATCC 25923; experiment: MIC, NCCLS/CLSI guidelines (Example 5), strain B; conditions: relative to wildtype Plectasin; average of two independent experiments
Method: as §1, §2, §3, §4

[4] = test system: Staphylococcus aureus, ATCC 29737; experiment: MIC, NCCLS/CLSI guidelines (Example 5), strain C; conditions: relative to wildtype Plectasin; average of two independent experiments
Method: as §1, §2, §3, §4

[5] = test system: Staphylococcus aureus, MRSA ST5 (2001); experiment: MIC, NCCLS/CLSI guidelines (Example 5), strain D; conditions: relative to wildtype Plectasin; average of two independent experiments
Method: as §1, §2, §3, §4

[6] = test system: Staphylococcus aureus, MRSA ST80 (2003); experiment: MIC, NCCLS/CLSI guidelines (Example 5), strain E; conditions: relative to wildtype Plectasin; average of two independent experiments
Method: as §1, §2, §3, §4

[7] = test system: panel of 6 different strains of Staphylococcus aureus; experiment: Average MIC, NCCLS/CLSI guidelines using caMHB (Example 6); conditions: average over 6 S. aureus strains, duplicate; MIC above 32 counted as 64; read after 18-24 hours at 37° C.
Method in brief: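 MICs were determined by broth dilution per NCCLS/CLSI in caMHB against six S. aureus strains (four MSSA, two MRSA), with peptides at 0.03–32 microgram/mL, read after 18-24 h at 37° C. Each was tested in duplicate and the two results averaged; MICs above 32 micrograms/mL were counted as 64.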

Row | Substance | Activity (antimicrobial activity relative to the activity of plectasin) [1] | Relative MIC, strain A [2] | Relative MIC, strain B [3] | Relative MIC, strain C [4] | Relative MIC, strain D [5] | Relative MIC, strain E [6] | Average MIC [7]
1 | GFGCNGPWDENDMQCHNHCKSIKGYKGGYCAKGGFVCKCY [Mutation D11N] | 3 | 2 (50-80% of Plectasin wildtype MIC) | 3 (<50% of Plectasin wildtype MIC) | 2 (50-80% of Plectasin wildtype MIC) | 2 (50-80% of Plectasin wildtype MIC) | 3 (<50% of Plectasin wildtype MIC) | 6 micrograms/mL
2 | GFGCSGPWDEDDMRCHNHCKAIRGYKGGYCAKGGFVCKCY [N5S + Q14R + S21A + K23R] | 3 | 1 (80-100% of Plectasin wildtype MIC) | 3 (<50% of Plectasin wildtype MIC) | 2 (50-80% of Plectasin wildtype MIC) | 2 (50-80% of Plectasin wildtype MIC) | 0 (>100% of Plectasin wildtype MIC) | 9 micrograms/mL
3 | D9N + Q14H + K38R: variant of Plectasin (SEQ ID NO: 1) (GFGCNGPWNEDDMHCHNHCKSIKGYKGGYCAKGGFVCRCY) |  | 3 (<50% of Plectasin wildtype MIC) | 3 (<50% of Plectasin wildtype MIC) | 3 (<50% of Plectasin wildtype MIC) | 3 (<50% of Plectasin wildtype MIC) | 2 (50-80% of Plectasin wildtype MIC) | 4 micrograms/mL
4 | M13T + Q14K + K26R: variant of Plectasin (SEQ ID NO: 1) (GFGCNGPWDEDDTKCHNHCKSIKGYRGGYCAKGGFVCKCY) |  | 1 (80-100% of Plectasin wildtype MIC) | 3 (<50% of Plectasin wildtype MIC) | 3 (<50% of Plectasin wildtype MIC) | 2 (50-80% of Plectasin wildtype MIC) | 0 (>100% of Plectasin wildtype MIC) | 7 micrograms/mL
5 | N5A + D9S + M13L + N17T: variant of Plectasin (SEQ ID NO: 1) (GFGCAGPWSEDDLQCHTHCKSIKGYKGGYCAKGGFVCKCY) |  | 0 (>100% of Plectasin wildtype MIC) | 3 (<50% of Plectasin wildtype MIC) | 3 (<50% of Plectasin wildtype MIC) | 2 (50-80% of Plectasin wildtype MIC) | 3 (<50% of Plectasin wildtype MIC) | 6 micrograms/mL
6 | D9S + Q14K + V36L: variant of Plectasin (SEQ ID NO: 1) (GFGCNGPWSEDDMKCHNHCKSIKGYKGGYCAKGGFLCKCY) |  | 3 (<50% of Plectasin wildtype MIC) | 3 (<50% of Plectasin wildtype MIC) | 3 (<50% of Plectasin wildtype MIC) | 3 (<50% of Plectasin wildtype MIC) | 3 (<50% of Plectasin wildtype MIC) | 1 micrograms/mL
7 | D9N + M13L + Q14R: variant of Plectasin (SEQ ID NO: 1) (GFGCNGPWNEDDLRCHNHCKSIKGYKGGYCAKGGFVCKCY) |  | 3 (<50% of Plectasin wildtype MIC) | 3 (<50% of Plectasin wildtype MIC) | 3 (<50% of Plectasin wildtype MIC) | 3 (<50% of Plectasin wildtype MIC) | 3 (<50% of Plectasin wildtype MIC) | 1 micrograms/mL
8 | N5S + D9S + M13V + N17R: variant of Plectasin (SEQ ID NO: 1) (GFGCSGPWSEDDVQCHRHCKSIKGYKGGYCAKGGFVCKCY) |  | 3 (<50% of Plectasin wildtype MIC) | 3 (<50% of Plectasin wildtype MIC) | 3 (<50% of Plectasin wildtype MIC) | 3 (<50% of Plectasin wildtype MIC) | 3 (<50% of Plectasin wildtype MIC) | 2 micrograms/mL
9 | D9S + M13L + Q14H: variant of Plectasin (SEQ ID NO: 1) (GFGCNGPWSEDDLHCHNHCKSIKGYKGGYCAKGGFVCKCY) |  | 3 (<50% of Plectasin wildtype MIC) | 3 (<50% of Plectasin wildtype MIC) | 3 (<50% of Plectasin wildtype MIC) | 3 (<50% of Plectasin wildtype MIC) | 3 (<50% of Plectasin wildtype MIC) | 3 micrograms/mL
10 | N5G + D9S + M13L + N17Q + A31T: variant of Plectasin (SEQ ID NO: 1) (GFGCGGPWSEDDLQCHQHCKSIKGYKGGYCTKGGFVCKCY) |  | 3 (<50% of Plectasin wildtype MIC) | 3 (<50% of Plectasin wildtype MIC) | 3 (<50% of Plectasin wildtype MIC) | 3 (<50% of Plectasin wildtype MIC) | 3 (<50% of Plectasin wildtype MIC) | 3 micrograms/mL
11 | D9A + K38R: variant of Plectasin (SEQ ID NO: 1) (GFGCNGPWAEDDMQCHNHCKSIKGYKGGYCAKGGFVCRCY) |  | 3 (<50% of Plectasin wildtype MIC) | 3 (<50% of Plectasin wildtype MIC) | 3 (<50% of Plectasin wildtype MIC) | 3 (<50% of Plectasin wildtype MIC) | 3 (<50% of Plectasin wildtype MIC) | 4 micrograms/mL
12 | N5R + M13Y + N17R: variant of Plectasin (SEQ ID NO: 1) (GFGCRGPWDEDDYQCHRHCKSIKGYKGGYCAKGGFVCKCY) |  | 3 (<50% of Plectasin wildtype MIC) | 3 (<50% of Plectasin wildtype MIC) | 3 (<50% of Plectasin wildtype MIC) | 3 (<50% of Plectasin wildtype MIC) | 3 (<50% of Plectasin wildtype MIC) | 1 micrograms/mL
13 | M13G + N17R + G33A: variant of Plectasin (SEQ ID NO: 1) (GFGCNGPWDEDDGQCHRHCKSIKGYKGGYCAKAGFVCKCY) |  | 3 (<50% of Plectasin wildtype MIC) | 3 (<50% of Plectasin wildtype MIC) | 3 (<50% of Plectasin wildtype MIC) | 3 (<50% of Plectasin wildtype MIC) | 3 (<50% of Plectasin wildtype MIC) | 2 micrograms/mL
14 | M13Y + Q14K + K26R: variant of Plectasin (SEQ ID NO: 1) (GFGCNGPWDEDDYKCHNHCKSIKGYRGGYCAKGGFVCKCY) |  | 2 (50-80% of Plectasin wildtype MIC) | 3 (<50% of Plectasin wildtype MIC) | 3 (<50% of Plectasin wildtype MIC) | 3 (<50% of Plectasin wildtype MIC) | 3 (<50% of Plectasin wildtype MIC) | 5 micrograms/mL
15 | N5S + D9A + K26R: variant of Plectasin (SEQ ID NO: 1) (GFGCSGPWAEDDMQCHNHCKSIKGYRGGYCAKGGFVCKCY) |  | 3 (<50% of Plectasin wildtype MIC) | 3 (<50% of Plectasin wildtype MIC) | 3 (<50% of Plectasin wildtype MIC) | 3 (<50% of Plectasin wildtype MIC) | 3 (<50% of Plectasin wildtype MIC) | 3 micrograms/mL
